Measured values reported in US20230233567A1, “BELVARAFENIB FOR USE IN CANCER TREATMENT” (Hanmi Pharm. Co., Ltd., priority 2020, published 2023).
Read-outs that look alike come from different tables or passages of the source.

Tests used:
[1] = system: HCT116 (KRAS^G13D); experiment: In vitro cell growth inhibition, CRC; assay type: cell-based; settings: Homo sapiens, HCT-116
[2] = system: MEK and ERK phosphorylation in Lovo (KRAS^G13D) cells; experiment: Inhibition of MEK and ERK phosphorylation, KRAS mutant; assay type: cell-based; settings: Homo sapiens, CRC Lovo, KRAS G13D, 2 hr treatment
[3] = system: MEK and ERK phosphorylation in HCT116 (KRAS^G13D) cells; experiment: as above; assay type: cell-based; settings: Homo sapiens, HCT-116, CRC HCT116, KRAS G13D, 2 hr treatment
[4] = system: Calu-6 (KRAS^Q61K); experiment: In vitro cell growth inhibition, NSCLC; assay type: cell-based; settings: Homo sapiens
[5] = system: Calu-1 (KRAS^G12C); experiment: In vitro cell growth inhibition, NSCLC; assay type: cell-based; settings: Homo sapiens
[6] = system: MEK and ERK phosphorylation in Calu-6 (KRAS^Q61K) cells; experiment: Inhibition of MEK and ERK phosphorylation, KRAS mutant; assay type: cell-based; settings: Homo sapiens, NSCLC Cau-6 (Calu-6), 2 hr treatment
[7] = system: LS513 (KRAS^G12D); experiment: In vitro cell growth inhibition, CRC; assay type: cell-based; settings: Homo sapiens, LS-513
[8] = system: P-MEK / total MEK; experiment: % P/T-MEK (ratio of P-MEK and total MEK)
Description: Belvarafenib was evaluated to measure the inhibition capability of RAF monomers and dimers. In Table 12: “A375” refers to the A375 a human melanoma cell line bearing a BRAF^V600E mutation; “IPC298” refers to the IPC298 cutaneous melanoma cell line bearing an NRAS^Q61L mutation; “A549” refers to the A549 lung adenocarcinoma cell line baring a KRAS mutation; “CSFR1” refers to the CSFR1 gene; “DDR1” refers to discoidin domain receptors DDR1; and “DDR2” refers to discoidin domain receptors DDR2. In Table 13: “% P/T−MEK” refers to the ratio of P-MEK and total MEK; “Conc 1” refers to an inhibitor first (lowest) concentration; “Conc 2” refers to an inhibitor second (intermediate) concentration; and “Conc 3” refers to an inhibitor third (highest) concentration. In Table 13, LXH254 refers to a drug having CAS No.: 1800398-38-2 and the following structure: […]

[9] = system: Lovo (KRAS^G13D); experiment: In vitro cell growth inhibition, CRC; assay type: cell-based; settings: Homo sapiens
[10] = system: SK-MEL-2 (NRAS^Q61R); experiment: In vitro cell growth inhibition, melanoma; assay type: cell-based; settings: Homo sapiens, mean ± SD, n = 3
Description: (§1) A G150 of 69, 57, 53, and 24 nM were determined for SK-MEL-28, A375, SK-MEL-2, and SK-MEL-30 cell lines, respectively.

[11] = system: SK-MEL-30 (NRAS^Q61K); experiment: In vitro cell growth inhibition, melanoma; assay type: cell-based; settings: Homo sapiens, mean ± SD, n = 3
Description: as §1

[12] = system: A375 (BRAF^V600E); experiment: In vitro cell growth inhibition, melanoma; assay type: cell-based; settings: Homo sapiens, A-375, mean ± SD, n = 3
[13] = system: SK-MEL-28 (BRAF^V600E); experiment: In vitro cell growth inhibition, melanoma; assay type: cell-based; settings: Homo sapiens, mean ± SD, n = 3
[14] = system: LS174T (KRAS^G12D); experiment: In vitro cell growth inhibition, CRC; assay type: cell-based; settings: Homo sapiens
[15] = system: ARO (BRAF^V600E); experiment: In vitro cell growth inhibition, thyroid cancer; assay type: cell-based
[16] = system: Colo-205 (BRAF^V600E); experiment: In vitro cell growth inhibition, CRC; assay type: cell-based; settings: Homo sapiens
[17] = system: NPA (BRAF^V600E); experiment: In vitro cell growth inhibition, thyroid cancer; assay type: cell-based
[18] = system: SNU80 (BRAF^G468R); experiment: In vitro cell growth inhibition, thyroid cancer; assay type: cell-based
[19] = system: CAL-62 (KRAS^G12R); experiment: In vitro cell growth inhibition, thyroid cancer; assay type: cell-based; settings: Homo sapiens
[20] = system: MEK and ERK phosphorylation in SK-MEL-28 (BRAF^V600E) cells; experiment: Inhibition of MEK and ERK phosphorylation; assay type: cell-based; settings: Homo sapiens
[21] = system: MEK and ERK phosphorylation in SK-MEL-30 (NRAS^Q61K) cells; experiment: Inhibition of MEK and ERK phosphorylation; assay type: cell-based; settings: Homo sapiens
[22] = system: MEK and ERK phosphorylation in A375 (BRAF^V600E) cells; experiment: Inhibition of MEK and ERK phosphorylation; assay type: cell-based; settings: Homo sapiens
[23] = system: MEK and ERK phosphorylation in SK-MEL-2 (NRAS^Q61R) cells; experiment: Inhibition of MEK and ERK phosphorylation; assay type: cell-based; settings: Homo sapiens
[24] = target: CSF1R (FMS) (Homo sapiens, UniProt P07333); experiment: In vitro kinase assay; assay type: biochemical; settings: confirmatory assay
Description: (§2) The in vitro kinase inhibitory selectivity and activity of belvarafenib were evaluated in a kinase panel assay against 189 kinases and a subsequent confirmatory assay against selected kinases by using Z′-Lyte® biochemical assay, Lantha® binding assay and Adapter® assay.

[25] = target: T1, DDR2 (Homo sapiens, UniProt Q16832); experiment: In vitro kinase assay; assay type: biochemical; settings: confirmatory assay
T1 sequence (Q16832 22-855): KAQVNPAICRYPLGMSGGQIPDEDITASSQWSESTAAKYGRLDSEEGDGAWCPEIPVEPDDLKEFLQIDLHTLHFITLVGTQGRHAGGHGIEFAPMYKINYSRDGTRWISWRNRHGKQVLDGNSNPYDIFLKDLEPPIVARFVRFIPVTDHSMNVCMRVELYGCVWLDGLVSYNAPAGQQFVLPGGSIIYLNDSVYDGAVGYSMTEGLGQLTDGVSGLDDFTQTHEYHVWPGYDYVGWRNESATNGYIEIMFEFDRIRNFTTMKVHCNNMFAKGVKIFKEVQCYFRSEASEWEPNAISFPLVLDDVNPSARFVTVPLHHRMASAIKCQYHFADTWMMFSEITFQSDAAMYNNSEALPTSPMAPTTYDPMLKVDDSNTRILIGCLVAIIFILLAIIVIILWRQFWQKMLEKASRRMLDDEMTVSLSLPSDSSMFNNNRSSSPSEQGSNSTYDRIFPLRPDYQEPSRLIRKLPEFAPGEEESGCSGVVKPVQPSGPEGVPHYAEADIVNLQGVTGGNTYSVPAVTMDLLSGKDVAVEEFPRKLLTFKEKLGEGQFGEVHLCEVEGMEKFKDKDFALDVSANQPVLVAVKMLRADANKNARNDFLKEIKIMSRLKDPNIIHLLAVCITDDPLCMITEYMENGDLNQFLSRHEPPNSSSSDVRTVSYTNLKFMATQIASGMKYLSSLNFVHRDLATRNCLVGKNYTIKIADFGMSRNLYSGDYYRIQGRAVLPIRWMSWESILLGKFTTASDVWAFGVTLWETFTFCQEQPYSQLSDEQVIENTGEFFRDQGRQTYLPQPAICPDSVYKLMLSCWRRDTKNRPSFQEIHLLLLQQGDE
Description: as §2

[26] = target: DDR1 (Homo sapiens, UniProt Q08345); experiment: In vitro kinase assay; assay type: biochemical; settings: confirmatory assay
Description: as §2

[27] = system: FRO (BRAF^V600E); experiment: In vitro cell growth inhibition, thyroid cancer; assay type: cell-based
[28] = system: 8505C (BRAF^V600E); experiment: In vitro cell growth inhibition, thyroid cancer; assay type: cell-based; settings: Homo sapiens
[29] = system: SNU790 (BRAF^V600E); experiment: In vitro cell growth inhibition, thyroid cancer; assay type: cell-based; settings: SNU7890, BRAF^V600E
[30] = system: HT-29 (BRAF^V600E); experiment: In vitro cell growth inhibition, CRC; assay type: cell-based; settings: Homo sapiens
[31] = system: B-CPAP (BRAF^V600E); experiment: In vitro cell growth inhibition, thyroid cancer; assay type: cell-based; settings: Homo sapiens, BCPAP
[32] = system: NRAS-mutant melanoma; settings: NRAS-mutant melanoma patients, NEMO study; cited from earlier work
[33] = Conc 1, first (lowest) concentration
[34] = Conc 2, second (intermediate) concentration
[35] = Conc 3, third (highest) concentration

Sequence of DDR1 (Q08345 19-913): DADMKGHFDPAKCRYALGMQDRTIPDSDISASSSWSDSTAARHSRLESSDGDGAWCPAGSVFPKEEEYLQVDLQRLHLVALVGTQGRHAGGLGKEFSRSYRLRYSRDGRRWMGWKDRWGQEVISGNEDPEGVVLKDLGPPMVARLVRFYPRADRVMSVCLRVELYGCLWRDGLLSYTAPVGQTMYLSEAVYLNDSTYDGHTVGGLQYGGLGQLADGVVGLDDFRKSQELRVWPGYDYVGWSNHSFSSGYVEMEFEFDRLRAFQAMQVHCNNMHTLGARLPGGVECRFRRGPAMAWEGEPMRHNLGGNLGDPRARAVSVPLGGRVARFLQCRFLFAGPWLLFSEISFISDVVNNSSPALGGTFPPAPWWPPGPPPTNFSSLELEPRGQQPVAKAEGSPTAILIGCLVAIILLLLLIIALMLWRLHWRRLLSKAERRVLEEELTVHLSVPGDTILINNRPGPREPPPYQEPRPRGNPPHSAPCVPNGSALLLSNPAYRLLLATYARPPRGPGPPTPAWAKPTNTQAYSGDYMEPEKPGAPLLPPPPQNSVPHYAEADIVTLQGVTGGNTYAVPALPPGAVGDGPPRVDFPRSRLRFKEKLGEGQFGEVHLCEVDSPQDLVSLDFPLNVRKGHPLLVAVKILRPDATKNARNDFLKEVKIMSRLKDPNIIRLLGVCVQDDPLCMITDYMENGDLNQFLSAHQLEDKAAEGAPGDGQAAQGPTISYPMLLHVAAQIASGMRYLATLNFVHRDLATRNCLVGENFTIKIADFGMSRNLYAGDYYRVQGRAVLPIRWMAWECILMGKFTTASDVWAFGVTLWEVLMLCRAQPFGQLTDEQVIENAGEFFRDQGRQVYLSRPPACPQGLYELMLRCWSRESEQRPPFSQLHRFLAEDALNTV
Sequence of CSF1R (FMS) (P07333 20-972): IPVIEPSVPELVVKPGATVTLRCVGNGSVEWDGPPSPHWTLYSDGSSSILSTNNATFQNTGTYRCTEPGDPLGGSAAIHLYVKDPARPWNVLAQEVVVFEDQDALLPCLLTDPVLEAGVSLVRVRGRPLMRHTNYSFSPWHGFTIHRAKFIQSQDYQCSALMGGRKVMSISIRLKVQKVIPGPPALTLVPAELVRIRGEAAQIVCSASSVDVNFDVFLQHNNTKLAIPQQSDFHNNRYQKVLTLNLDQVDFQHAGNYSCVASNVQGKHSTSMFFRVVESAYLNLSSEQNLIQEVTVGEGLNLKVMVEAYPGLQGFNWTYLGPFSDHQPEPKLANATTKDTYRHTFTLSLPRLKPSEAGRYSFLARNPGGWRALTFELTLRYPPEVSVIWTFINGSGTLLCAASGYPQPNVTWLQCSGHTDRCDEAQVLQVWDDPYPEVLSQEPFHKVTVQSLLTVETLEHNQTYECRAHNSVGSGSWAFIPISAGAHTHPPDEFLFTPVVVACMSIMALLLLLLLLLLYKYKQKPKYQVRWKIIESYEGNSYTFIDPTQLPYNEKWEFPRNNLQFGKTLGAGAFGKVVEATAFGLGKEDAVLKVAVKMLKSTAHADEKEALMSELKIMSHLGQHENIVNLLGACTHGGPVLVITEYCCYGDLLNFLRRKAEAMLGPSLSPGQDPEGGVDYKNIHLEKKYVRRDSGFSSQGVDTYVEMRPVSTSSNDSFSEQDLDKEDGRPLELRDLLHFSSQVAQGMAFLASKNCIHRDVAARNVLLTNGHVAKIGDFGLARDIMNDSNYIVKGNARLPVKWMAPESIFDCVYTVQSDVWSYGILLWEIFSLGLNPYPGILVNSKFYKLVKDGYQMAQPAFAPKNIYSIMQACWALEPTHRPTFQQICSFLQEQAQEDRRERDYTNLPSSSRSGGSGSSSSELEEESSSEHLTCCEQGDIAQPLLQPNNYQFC

**Q.** Which results are given for `CC(C)(C)c1nc(-c2cccc(NS(=O)(=O)c3c(F)cccc3F)c2F)c(-c2ccnc(N)n2)s1` [Dabrafenib]?
**A.** GI50 [1]: > 10 µM; IC50 ([2]; read-out: IC50 pERK): > 10 µM; IC50 ([2]; read-out: IC50 pMEK): > 10 µM; IC50 ([3]; read-out: IC50 pERK): > 10 µM; IC50 ([3]; read-out: IC50 pMEK): > 10 µM; GI50 [4]: 0.618 µM; GI50 [5]: 0.904 µM; IC50 ([6]; read-out: IC50 pERK): > 10 µM; IC50 ([6]; read-out: IC50 pMEK): > 10 µM; GI50 [7]: 3.06 µM; % P/T-MEK [8, 33]: 125%; % P/T-MEK [8, 34]: 150%; % P/T-MEK [8, 35]: 75%; GI50 [9]: 0.214 µM; GI50 [10]: 0.204 µM; GI50 [11]: 0.258 µM; GI50 [12]: < 0.0001 µM; GI50 [13]: < 0.0001 µM; GI50 [14]: > 10 µM

**Q.** With `Cc1ccc(NC(=O)c2ccnc(C(F)(F)F)c2)cc1-c1cc(OCCO)nc(N2CCOCC2)c1` [LXH254] as the compound, how does the “% P/T-MEK” value [8, 33] read?
**A.** 80%

**Q.** And the “% P/T-MEK” value [8, 34]?
**A.** 70%

**Q.** What about the “% P/T-MEK” value [8, 35] of the same compound?
**A.** 10%

**Q.** Which results are given for `CCCS(=O)(=O)Nc1ccc(F)c(C(=O)c2c[nH]c3ncc(-c4ccc(Cl)cc4)cc23)c1F` [Vemurafenib, reference compound]?
**A.** GI50 [15]: 5.26 µM; GI50 [1]: > 10 µM; IC50 ([2]; read-out: IC50 pERK): > 10 µM; IC50 ([2]; read-out: IC50 pMEK): > 10 µM; IC50 ([3]; read-out: IC50 pERK): > 10 µM; IC50 ([3]; read-out: IC50 pMEK): > 10 µM; GI50 [16]: 0.065 µM; GI50 [17]: 0.044 µM; GI50 [4]: > 10 µM; GI50 [5]: 7.48 µM; IC50 ([6]; read-out: IC50 pERK): > 10 µM; IC50 ([6]; read-out: IC50 pMEK): > 10 µM; GI50 [7]: > 10 µM; GI50 [9]: 4.03 µM; GI50 [18]: 2.85 µM; GI50 [19]: > 10 µM; IC50 ([20]; read-out: IC50 pERK): 0.028 µM; IC50 ([20]; read-out: IC50 pMEK): 0.032 µM; IC50 ([21]; read-out: IC50 pERK): > 10 µM; IC50 ([21]; read-out: IC50 pMEK): > 10 µM; IC50 ([22]; A-375, read-out: IC50 pERK): 0.02 µM; IC50 ([22]; A-375, read-out: IC50 pMEK): 0.073 µM; IC50 ([23]; read-out: IC50 pERK): > 10 µM; IC50 ([23]; read-out: IC50 pMEK): > 10 µM; GI50 [10]: > 10 µM; GI50 [11]: > 10 µM; IC50 [24]: > 10 µM; IC50 [25]: > 10 µM; IC50 [26]: > 10 µM; GI50 [27]: 1.76 µM; GI50 [12]: 0.075 ± 0.012 µM; GI50 [28]: 3.44 µM; GI50 [29]: 0.19 µM; GI50 [13]: 0.077 ± 0.017 µM; GI50 [30]: 0.11 µM; GI50 [31]: 0.031 µM; GI50 [14]: > 10 µM

**Q.** What does the source list for `Cn1cnc2c(F)c(Nc3ccc(Br)cc3F)c(C(=O)NOCCO)cc21` [binimetinib]?
**A.** mPFS [32]: 2.8 months; overall response rate [32]: 15%
